# Data from the supplement of paper PMC10307832.
# Columns and labels:
# Test in all cases: relative viability (nuclei count vs DMSO), 5 days (fraction); higher = more cells survive
# [1] = system: PC-14
# Method in brief: (§1)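 Relative viability was taken as the ratio of nuclei in treated wells to nuclei in vehicle wells. Lung cancer cell lines in 1536-well plates received compounds by pin tool one day after seeding, either one drug alone or a fixed anchor-drug dose plus five library-drug doses (not always all listed) in √10 steps. Nuclei were counted on 4× images after 5 days of treatment, and values are medians of duplicate plates.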
# [2] = system: NCI-H2347
# Method in brief: as §1
# [3] = system: NCI-H2126
# Method in brief: as §1
# [4] = system: LCLC-97TM1
# Method in brief: as §1
# [5] = system: NCI-H1915
# Method in brief: as §1
# [6] = system: NCI-H322M
# Method in brief: as §1
# [7] = system: NCI-H647
# Method in brief: as §1
# [8] = system: NCI-H727
# Method in brief: as §1
# [9] = system: HOP-62
# Method in brief: as §1
# [10] = system: NCI-H2342
# Method in brief: as §1
# [11] = system: EMC-BAC-2
# Method in brief: as §1
# [12] = system: LXF-289
# Method in brief: as §1
# [13] = system: NCI-H1993
# Method in brief: as §1
# [14] = system: H3255
# Method in brief: as §1
# [15] = system: EPLC-272H
# Method in brief: as §1
# [16] = system: NCI-H2085
# Method in brief: as §1
# [17] = system: NCI-H2009
# Method in brief: as §1
# [18] = system: NCI-H661
# Method in brief: as §1
# [19] = system: SK-LU-1
# Method in brief: as §1
# [20] = system: NCI-H1650
# Method in brief: as §1
# [21] = system: SW 1573
# Method in brief: as §1
# [22] = system: NCI-H2023
# Method in brief: as §1
smiles,measurement,setting,value
CC1(C)CCC(c2ccc(Cl)cc2)=C(CN2CCN(c3ccc(C(=O)NS(=O)(=O)c4ccc(N[C@H](CCN5CCOCC5)CSc5ccccc5)c(S(=O)(=O)C(F)(F)F)c4)cc3)CC2)C1 [Navitoclax] + NC(=O)Nc1cc(-c2cccc(F)c2)sc1C(=O)N[C@H]1CCCNC1 [AZD7762] (partner 0.2 µM),relative viability,[1]; first compound 0.005 µM,0.326
same,relative viability,[1]; first compound 0.01581 µM,0.413
same,relative viability,[1]; first compound 0.05 µM,0.255
same,relative viability,[1]; first compound 0.1581 µM,0.322
same,relative viability,[1]; first compound 0.5 µM,0.325
same,relative viability,[2]; first compound 0.005 µM,0.809
same,relative viability,[2]; first compound 0.01581 µM,0.594
same,relative viability,[2]; first compound 0.05 µM,0.579
same,relative viability,[2]; first compound 0.1581 µM,0.685
same,relative viability,[2]; first compound 0.5 µM,0.579
same,relative viability,[3]; first compound 0.005 µM,1.06
same,relative viability,[3]; first compound 0.01581 µM,0.931
same,relative viability,[3]; first compound 0.05 µM,1.05
same,relative viability,[3]; first compound 0.1581 µM,0.915
same,relative viability,[3]; first compound 0.5 µM,0.947
same,relative viability,[4]; first compound 0.005 µM,0.236
same,relative viability,[4]; first compound 0.01581 µM,0.301
same,relative viability,[4]; first compound 0.05 µM,0.181
same,relative viability,[4]; first compound 0.1581 µM,0.253
same,relative viability,[4]; first compound 0.5 µM,0.22
same,relative viability,[5]; first compound 0.005 µM,0.726
same,relative viability,[5]; first compound 0.01581 µM,0.697
same,relative viability,[5]; first compound 0.05 µM,0.657
same,relative viability,[5]; first compound 0.1581 µM,0.639
same,relative viability,[5]; first compound 0.5 µM,0.597
same,relative viability,[6]; first compound 0.005 µM,0.648
same,relative viability,[6]; first compound 0.01581 µM,0.626
same,relative viability,[6]; first compound 0.05 µM,0.511
same,relative viability,[6]; first compound 0.1581 µM,0.587
same,relative viability,[6]; first compound 0.5 µM,0.679
same,relative viability,[7]; first compound 0.005 µM,0.413
same,relative viability,[7]; first compound 0.01581 µM,0.446
same,relative viability,[7]; first compound 0.05 µM,0.492
same,relative viability,[7]; first compound 0.1581 µM,0.343
same,relative viability,[7]; first compound 0.5 µM,0.438
same,relative viability,[8]; first compound 0.005 µM,0.656
same,relative viability,[8]; first compound 0.01581 µM,0.595
same,relative viability,[8]; first compound 0.05 µM,0.539
same,relative viability,[8]; first compound 0.1581 µM,0.674
same,relative viability,[8]; first compound 0.5 µM,0.594
same,relative viability,[9]; first compound 0.005 µM,0.721
same,relative viability,[9]; first compound 0.01581 µM,0.694
same,relative viability,[9]; first compound 0.05 µM,0.514
same,relative viability,[9]; first compound 0.1581 µM,0.512
same,relative viability,[9]; first compound 0.5 µM,0.384
same,relative viability,[10]; first compound 0.005 µM,0.532
same,relative viability,[10]; first compound 0.01581 µM,0.464
same,relative viability,[10]; first compound 0.05 µM,0.424
same,relative viability,[10]; first compound 0.1581 µM,0.603
same,relative viability,[10]; first compound 0.5 µM,0.571
same,relative viability,[11]; first compound 0.005 µM,1.03
same,relative viability,[11]; first compound 0.01581 µM,1.26
same,relative viability,[11]; first compound 0.05 µM,1.07
same,relative viability,[11]; first compound 0.1581 µM,1.09
same,relative viability,[11]; first compound 0.5 µM,1.13
same,relative viability,[12]; first compound 0.005 µM,1.11
same,relative viability,[12]; first compound 0.01581 µM,1.18
same,relative viability,[12]; first compound 0.05 µM,0.924
same,relative viability,[12]; first compound 0.1581 µM,1.06
same,relative viability,[12]; first compound 0.5 µM,1.04
same,relative viability,[13]; first compound 0.005 µM,0.738
same,relative viability,[13]; first compound 0.01581 µM,1.05
same,relative viability,[13]; first compound 0.05 µM,0.552
same,relative viability,[13]; first compound 0.1581 µM,0.721
same,relative viability,[13]; first compound 0.5 µM,0.641
same,relative viability,[14]; first compound 0.005 µM,0.891
same,relative viability,[14]; first compound 0.01581 µM,1.03
same,relative viability,[14]; first compound 0.05 µM,0.851
same,relative viability,[14]; first compound 0.1581 µM,0.922
same,relative viability,[14]; first compound 0.5 µM,0.805
same,relative viability,[15]; first compound 0.005 µM,0.26
same,relative viability,[15]; first compound 0.05 µM,0.3
same,relative viability,[15]; first compound 0.1581 µM,0.143
same,relative viability,[15]; first compound 0.5 µM,0.257
same,relative viability,[16]; first compound 0.005 µM,0.941
same,relative viability,[16]; first compound 0.01581 µM,1.01
same,relative viability,[16]; first compound 0.05 µM,0.885
same,relative viability,[16]; first compound 0.1581 µM,1.07
same,relative viability,[16]; first compound 0.5 µM,0.942
O=C(O)c1ccc(-c2c[nH]c3ncc(-c4ccccc4)cc23)cc1C1CCCC1 + Nc1ncn([C@H]2C[C@H](O)[C@@H](CO)O2)c(=O)n1 [Decitabine] (partner 2 µM),relative viability,[1]; first compound 0.04 µM,0.19
same,relative viability,[1]; first compound 0.1265 µM,0.211
same,relative viability,[1]; first compound 0.4 µM,0.213
same,relative viability,[1]; first compound 1.265 µM,0.195
same,relative viability,[2]; first compound 0.04 µM,0.609
same,relative viability,[2]; first compound 0.1265 µM,0.603
same,relative viability,[2]; first compound 0.4 µM,0.647
same,relative viability,[2]; first compound 1.265 µM,0.582
same,relative viability,[3]; first compound 0.04 µM,0.585
same,relative viability,[3]; first compound 0.1265 µM,0.621
same,relative viability,[3]; first compound 0.4 µM,0.466
same,relative viability,[3]; first compound 1.265 µM,0.569
same,relative viability,[17]; first compound 0.04 µM,0.411
same,relative viability,[17]; first compound 0.1265 µM,0.415
same,relative viability,[17]; first compound 0.4 µM,0.398
same,relative viability,[17]; first compound 1.265 µM,0.347
same,relative viability,[4]; first compound 0.04 µM,0.254
same,relative viability,[4]; first compound 0.1265 µM,0.226
same,relative viability,[4]; first compound 0.4 µM,0.207
same,relative viability,[4]; first compound 1.265 µM,0.195
same,relative viability,[5]; first compound 0.04 µM,0.241
same,relative viability,[5]; first compound 0.1265 µM,0.229
same,relative viability,[5]; first compound 0.4 µM,0.259
same,relative viability,[5]; first compound 1.265 µM,0.251
same,relative viability,[6]; first compound 0.04 µM,0.772
same,relative viability,[6]; first compound 0.1265 µM,0.704
same,relative viability,[6]; first compound 0.4 µM,0.723
same,relative viability,[6]; first compound 1.265 µM,0.66
same,relative viability,[7]; first compound 0.04 µM,0.535
same,relative viability,[7]; first compound 0.1265 µM,0.409
same,relative viability,[7]; first compound 0.4 µM,0.388
same,relative viability,[7]; first compound 1.265 µM,0.283
same,relative viability,[18]; first compound 0.04 µM,0.518
same,relative viability,[18]; first compound 0.1265 µM,0.586
same,relative viability,[18]; first compound 0.4 µM,0.534
same,relative viability,[18]; first compound 1.265 µM,0.524
same,relative viability,[8]; first compound 0.04 µM,0.77
same,relative viability,[8]; first compound 0.1265 µM,0.848
same,relative viability,[8]; first compound 0.4 µM,0.818
same,relative viability,[8]; first compound 1.265 µM,0.788
same,relative viability,[19]; first compound 0.04 µM,0.633
same,relative viability,[19]; first compound 0.1265 µM,0.587
same,relative viability,[19]; first compound 0.4 µM,0.592
same,relative viability,[19]; first compound 1.265 µM,0.508
same,relative viability,[9]; first compound 0.04 µM,0.166
same,relative viability,[9]; first compound 0.1265 µM,0.241
same,relative viability,[9]; first compound 0.4 µM,0.203
same,relative viability,[9]; first compound 1.265 µM,0.239
same,relative viability,[10]; first compound 0.04 µM,0.724
same,relative viability,[10]; first compound 0.1265 µM,0.663
same,relative viability,[10]; first compound 0.4 µM,0.836
same,relative viability,[10]; first compound 1.265 µM,0.731
same,relative viability,[20]; first compound 0.04 µM,0.409
same,relative viability,[20]; first compound 0.1265 µM,0.345
same,relative viability,[20]; first compound 0.4 µM,0.404
same,relative viability,[20]; first compound 1.265 µM,0.263
same,relative viability,[11]; first compound 0.04 µM,0.948
same,relative viability,[11]; first compound 0.1265 µM,1.06
same,relative viability,[11]; first compound 0.4 µM,1.01
same,relative viability,[11]; first compound 1.265 µM,0.909
same,relative viability,[12]; first compound 0.04 µM,0.352
same,relative viability,[12]; first compound 0.1265 µM,0.355
same,relative viability,[12]; first compound 0.4 µM,0.361
same,relative viability,[12]; first compound 1.265 µM,0.302
same,relative viability,[13]; first compound 0.04 µM,0.552
same,relative viability,[13]; first compound 0.1265 µM,0.547
same,relative viability,[13]; first compound 0.4 µM,0.613
same,relative viability,[13]; first compound 1.265 µM,0.644
same,relative viability,[14]; first compound 0.04 µM,0.64
same,relative viability,[14]; first compound 0.1265 µM,0.477
same,relative viability,[14]; first compound 0.4 µM,0.513
same,relative viability,[14]; first compound 1.265 µM,0.495
same,relative viability,[15]; first compound 0.04 µM,0.351
same,relative viability,[15]; first compound 0.1265 µM,0.402
same,relative viability,[15]; first compound 0.4 µM,0.388
same,relative viability,[15]; first compound 1.265 µM,0.277
same,relative viability,[16]; first compound 0.04 µM,0.588
same,relative viability,[16]; first compound 0.1265 µM,0.548
same,relative viability,[16]; first compound 0.4 µM,0.56
same,relative viability,[16]; first compound 1.265 µM,0.366
same,relative viability,[21]; first compound 0.04 µM,0.403
same,relative viability,[21]; first compound 0.1265 µM,0.546
same,relative viability,[21]; first compound 0.4 µM,0.505
same,relative viability,[21]; first compound 1.265 µM,0.407
same,relative viability,[22]; first compound 0.04 µM,0.191
same,relative viability,[22]; first compound 0.1265 µM,0.243
same,relative viability,[22]; first compound 0.4 µM,0.216
same,relative viability,[22]; first compound 1.265 µM,0.17
